Results taken from patent US5607914A, “Synthetic antimicrobial peptides” (Pioneer Hi-Bred International, Inc., priority 1994, dated 1997).
Like-named read-outs stand apart in the source and are kept apart here. No end group written: not given here.

Key:
[1] = test system: C. nebraskense
[2] = test system: E. coli
[3] = test system: F. moniliforme; assay: Antifungal activity of synthetic peptides (MIC/MCIC); type: cell-based
[4] = test system: A. flavus; assay: as above; type: cell-based
[5] = test system: F. graminearum; type: cell-based
[6] = test system: A. tumefaciens

RRIYRAIRHIPRRIR [Peptide 22]
MIC ([1]; C. nebraskense): 12.5 μg per ml
MIC ([2]; E. coli): 3.13 μg per ml

Cecropin A (KWKLFKKIEKVGQNIRDGIIKAGPAVAVVGQATQIAK; ends and bridges not checked; UniProt P01507 27-63, looked up)
MCIC [3]: > 80
MIC [3]: 80 µg/mL
MCIC [4]: > 80
MIC [4]: 80 µg/mL
MIC ([5]; F. graminearum, score of 1 or greater (25% growth inhibition)): 60 µg/mL
MCIC ([5]; F. graminearum, score of 3 or greater (≥80% growth inhibition)): > 80 µg/mL

KLKKALRWLARHAK [Peptide 20]
MIC [6]: 3.13 μg per ml
MIC [1]: 3.13 μg per ml
MIC [2]: 3.13 μg per ml

KWKKALRALARHLK [Peptide 19]
MIC [6]: 6.25 μg per ml
MIC [1]: 3.13 μg per ml
MIC [2]: 6.25 μg per ml

Mastoparan
MIC ([3]; F. moniliforme, score of 1 or greater (25% growth inhibition)): 2.5 µg/mL
MCIC ([3]; F. moniliforme, score of 3 or greater (≥80% growth inhibition)): 10 µg/mL
MIC ([4]; A. flavus, concentration achieving a score of 1 or greater (25% growth inhibition)): 20 µg/mL
MCIC ([4]; A. flavus, concentration achieving a score of 3 or greater (≥80% growth inhibition)): 40 µg/mL
MCIC [5]: 10
MIC [5]: 5 µg/mL
